The test system of assay [1] is B. subtilis cells. Kind of assay: membrane potential by DiS-C3-(5) fluorescence. In kind it is cell-based, Bacillus subtilis. The source says: Thus, we further examined the effect of CAM-Cn-TPP on the bacterial membrane potential of B. subtilis. In particular, the membrane potential of B. subtilis can be estimated from the fluorescence of the potential-sensitive dye, DiS-C3-(5), by measuring the changing fluorescence. The potential-dependent accumulation of the dye inside the bacterial cell causes quenching and leads to a decrease in fluorescence. Under the influence of substances that reduce the membrane potential, the dye is released and the fluorescence increases. […] Therefore, the action of CAM-Cn-TPP may have a double effect on bacterial cells and be based on the depolarization of the bacterial membrane by analogy with the mechanism of action of Cn-TPP [17].
The membrane potential of B. subtilis was estimated by measuring the fluorescence of the potential-dependent probe, DiS-C3-(5). B. subtilis from the overnight culture were seeded into a fresh LB medium, followed by growth for […], until reaching the optical density of 0.8 at 600 nm. Then, the bacteria were diluted 20-fold in a buffer containing 100 mM of KCl and 10 mM of Tris, pH 7.4. The fluorescence was measured at 670 nm (excitation at 630 nm) using a Fluorat-02-Panorama fluorimeter.

Assay [2] relates to CSC-like TNBC cells (MDA-MB-231 and BT-549, sensitive and chemoresistant). Put plainly: tumoursphere formation and viability of CSC-like cells. In kind it is cell-based. To be noted: for survival of CSCs: CSCs from parental and resistant TNBC cell lines; for spheroid formation: non-adherent conditions, 5 days. An excerpt: Several TPP-containing compounds have been proposed for the elimination of CSCs by the Lisanti group. In the current work, we studied the effect of CAM-TPP derivatives on CSC-like TNBC cell models.
The MDA-MB-231 (RRID: CVCL_0062) and BT-549 (RRID: CVCL_1092) cell lines were purchased from ATCC and cultured in DMEM/F12 (Gibco, Life Technologies, 31330-038) supplemented with 10% FBS, 1% Pen-Strep, 1% Sodium Pyruvate, and 1% L-glutamine. Chemoresistant cell lines were established with continuous treatment for 6 months with the anticancer therapeutic agent, cyclophosphamide (Rcyclo), as previously described. These cell lines were authenticated using short tandem repeat (STR) profiling within the last three years. To obtain CSC-like cells, a single cell suspension was prepared using enzymatic disaggregation (1× Trypsin-EDTA, Gibco, 25300062), and the cells were plated at a density of 10.000–12.000 cells per ml in a Cancer Stem Cell medium (C-28070, PromoCell, Heidelberg, Germany) in poly-2-hydroxyethyl methacrylate (Poly-HEMA, Santa Cruz Biotechnology, Dallas, TX, USA, sc-253284)-coated plates. […] The cells were […] with corresponding compounds or DMSO (control), followed by the abovementioned procedure of tumoursphere formation. The relative numbers of tumourspheres per well were counted manually. The experiments were performed independently at least 2 times, with several replicates.
The survival assay was performed essentially as described earlier. In short, cells were seeded into a 96-well plate, followed by treatment with increasing concentrations of the corresponding CAM-TPP derivatives for 3 days. 3-(4,5-dimethylthiazol-2-yl)-2,5-diphenyltetrazolium bromide (0.5 mg/mL MTT; Sigma-Aldrich) dissolved in media was added to each well. Following incubation for 2 h, the supernatant was carefully removed from the wells, and 100 µL of a DMSO:ethanol mix (1:1) was added to each well, followed by shaking for 10 min. The absorbance was measured at 570 nm in Bio Spec 1601, Shimadzu spectrometer. The OD570 of the DMSO solution in each well was considered to be proportional to the number of cells. The OD570 of the control (treatment without supplement) was considered to be 100%. The results were expressed as the means ± SEM. The data were analyzed using the GraphPad Prism 7 PRIZM computer software under the license of the Statistical Department (Vall’ d Hebron Hospital, Barcelona, Spain).

Assay [3] deals with MDA-MB-231 and BT-549 TNBC-sensitive and chemoresistant cells. Put plainly: cancer cell proliferation / viability assay (MTT). In kind it is cell-based. To be noted: 3 days treatment. An excerpt:
We recently provided in vivo [67] and in vitro [68] evidence that certain bactericidal antibiotics suppress tumor growth by inducing mitochondrial dysfunction. […] These cells differ from the corresponding parental cells and display a different response to the same microenvironmental stimuli, allowing them to reduce their proliferating rate and survive chemotherapeutic treatment. Here, we tested the abovementioned CAM-TPP derivatives on chemoresistant triple negative breast cancer (TNBC) cell models, as well as on corresponding CSC-like spheroid cells. We created several relevant models based on TNBC cell lines, particularly MDA-MB-231 and BT-549, to determine their resistance to cyclophosphamide. To create CSC-like cells, parental cells were resuspended in nonadherent conditions to form tumorspheres.
The MDA-MB-231 (RRID: CVCL_0062) and BT-549 (RRID: CVCL_1092) cell lines were purchased from ATCC and cultured in DMEM/F12 (Gibco, Life Technologies, 31330-038) supplemented with 10% FBS, 1% Pen-Strep, 1% Sodium Pyruvate, and 1% L-glutamine. Chemoresistant cell lines were established with continuous treatment for 6 months with the anticancer therapeutic agent, cyclophosphamide (Rcyclo), as previously described. These cell lines were authenticated using short tandem repeat (STR) profiling within the last three years. […] The relative numbers of tumourspheres per well were counted manually. […]
The survival assay was performed essentially as described earlier. […] The absorbance was measured at 570 nm in Bio Spec 1601, Shimadzu spectrometer. […] The results were expressed as the means ± SEM. The data were analyzed using the GraphPad Prism 7 PRIZM computer software under the license of the Statistical Department (Vall’ d Hebron Hospital, Barcelona, Spain).

Assay [4] has as its system Rabbit Reticulocyte Lysate. Kind of assay: inhibition of eukaryotic in vitro translation (firefly luciferase). To be noted: 30 µM compound. In kind it is biochemical. The method, then:
The next step was to test the new CAM-Cn-TPP compounds for their ability to inhibit the synthesis of the firefly luciferase reporter in vitro in a cell-free transcription-translation system based on an E. coli S30 extract.
The inhibition of eukaryotic translation was measured in Rabbit Reticulocyte Lysate (Promega) according to the manufacturer’s protocol. The reactions were programmed with 100 ng of Fluc mRNA and were carried out in 5 μL aliquots at 37 °C for 30 min. The activity of the in vitro synthesized luciferase was assessed using 5 μL of the substrate from the Steady-Glo Luciferase Assay System (Promega).

This is an account of results in paper PMC8145938, “Triphenilphosphonium Analogs of Chloramphenicol as Dual-Acting Antimicrobial and Antiproliferating Agents” (Antibiotics, 2021).

With `O=C(CCCCCCCCCC[P+](c1ccccc1)(c1ccccc1)c1ccccc1)N[C@H](CO)[C@H](O)c1ccc([N+](=O)[O-])cc1` [CAM-C10-TPP, (N-{[(1R,2R)-1,3-dihydroxy-1-(4-nitrophenyl)propan-2-yl]amino}-11-oxoundecyl)(triphenyl)phosphonium bromide], the “effect on membrane potential” value is on record as “caused a rapid drop in the membrane potential to the level observed with the channel-forming antibiotic gramicidin A” in assay [1] (10 µM) and “caused a decrease in the membrane potential of B. subtilis on a minute time scale” in assay [1] (submicromolar concentrations). The “survival of CSCs” value in assay [2] is “reduced the survival of CSCs formed from parental and resistant TNBC cell lines”. The spheroid formation entry in assay [2] is given as “significant decrease in spheroid formation”. The “effect on proliferation of TNBC cell lines” value in assay [3] is reported as “significantly reduced the proliferation of TNBC cell lines”. In addition, the “effect on eukaryotic in vitro translation” value in assay [4] is given as “had no effect on eukaryotic in vitro translation”.
Take `O=C(CCCCCCCCCC[P+](c1ccccc1)(c1ccccc1)c1ccccc1)NCCCC(=O)N[C@H](CO)[C@H](O)c1ccc([N+](=O)[O-])cc1` [CAM-C14-TPP, N-[(1R,2R)-1,3-dihydroxy-1-(4-nitrophenyl)propan-2-yl]-4-(triphenyl)phosphoniumundecanamidobutamide bromide]: the “effect on membrane potential” value in assay [1] (10 µM) was “caused a rapid drop in the membrane potential to the level observed with the channel-forming antibiotic gramicidin A”; in assay [1] (submicromolar concentrations), “caused a decrease in the membrane potential of B. subtilis on a minute time scale”. Moreover, the “survival of CSCs” value in assay [2] is “reduced the survival of CSCs formed from parental and resistant TNBC cell lines”. In assay [2], the spheroid formation result is “significant decrease in spheroid formation”. For the same compound, in assay [3], the “effect on proliferation of TNBC cell lines” value was “significantly reduced the proliferation of TNBC cell lines”. The “effect on eukaryotic in vitro translation” value in assay [4] is “had no effect on eukaryotic in vitro translation”.
